From paper PMC6835155, “Lessons from LIMK1 enzymology and their impact on inhibitor design” (Biochemical Journal, 2019) come the findings set out here.

The target of one experiment is T1, LIMK1KD (Homo sapiens, UniProt P53667).
T1 construct: His6 (N, cleaved yes); made in house; host or cells: baculovirus; Sf9 for virus, TriEx insect cells for expression
Put plainly: Differential (dynamic) scanning fluorimetry (DSF) assay, LIMK1KD. The experiment is classed as binding. The note with it: 2 µM LIMK1KD, compound 10 µM, single shot; for ΔTm at 10 µM: read-out: TM Shift LIMK1 (K).

The target in the next experiment is T2, LIMK2KD (Homo sapiens, UniProt P53671).
T2 construct: The cDNA coding for LIMK2 residues 330 to 632 was PCR amplified; His6 (N, cleaved yes); made in house; host or cells: baculovirus; Sf9 for virus, TriEx insect cells for expression
T2 sequence (P53671 330-632): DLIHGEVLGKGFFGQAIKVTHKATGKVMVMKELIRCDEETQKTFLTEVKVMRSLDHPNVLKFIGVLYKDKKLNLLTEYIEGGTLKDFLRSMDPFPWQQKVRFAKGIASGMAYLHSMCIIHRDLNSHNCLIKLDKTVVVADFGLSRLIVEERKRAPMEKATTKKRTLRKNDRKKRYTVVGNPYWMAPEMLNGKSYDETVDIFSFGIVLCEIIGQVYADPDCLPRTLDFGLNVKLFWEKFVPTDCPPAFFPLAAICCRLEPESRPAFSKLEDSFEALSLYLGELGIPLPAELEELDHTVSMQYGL
The experiment in a line: Differential (dynamic) scanning fluorimetry (DSF) assay, LIMK2KD. It counts as binding.

[1] abbreviates: LIMK2KD, compound 10 µM, single shot, read-out: TM Shift LIMK2 (K).
Where [2] appears, read: LIMK2KD, compound 10 µM, single shot.
Where [3] appears, read: LIMK2KD, compound 10 µM, single shot, 10 µM.

SMILES strings stand for the structures. Where a name gives a salt, the structure may show the parent alone. Read-outs that look alike come from different tables or passages of the source.

T1 sequence (P53667 330-637): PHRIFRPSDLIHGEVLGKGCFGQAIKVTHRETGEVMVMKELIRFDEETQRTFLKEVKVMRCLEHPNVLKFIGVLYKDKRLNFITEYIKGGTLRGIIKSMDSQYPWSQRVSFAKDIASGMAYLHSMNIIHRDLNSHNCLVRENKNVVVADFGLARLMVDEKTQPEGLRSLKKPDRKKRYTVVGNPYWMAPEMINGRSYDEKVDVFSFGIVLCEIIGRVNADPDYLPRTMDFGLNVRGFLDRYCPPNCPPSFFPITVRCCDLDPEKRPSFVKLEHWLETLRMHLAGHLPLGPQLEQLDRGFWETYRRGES

With `CNC(=O)c1cc(Oc2ccc(NC(=O)Nc3ccc(Cl)c(C(F)(F)F)c3)c(F)c2)ccn1` [Regorafenib (BAY 73-4506), Regorafenib], the results for the ΔTm at 10 µM at LIMK1KD and on LIMK2KD (setting [1]) were 0 °C and 0.7 °C, respectively.
With `CO[C@H]1C[C@@H]2CC[C@@H](C)[C@@](O)(O2)C(=O)C(=O)N2CCCC[C@H]2C(=O)O[C@H]([C@H](C)C[C@@H]2CC[C@@H](OP(C)(C)=O)[C@H](OC)C2)CC(=O)[C@H](C)/C=C(\C)[C@@H](O)[C@@H](OC)C(=O)[C@H](C)C[C@H](C)/C=C/C=C/C=C/1C` [Ridaforolimus (Deforolimus, MK-8669), Ridaforolimus], the ΔTm at 10 µM at LIMK1KD was determined as 0.1 °C; on LIMK2KD (setting [1]), 0.2 °C.
With `COc1cc(OC)c(/C=C/S(=O)(=O)Cc2ccc(OC)c(NCC(=O)O)c2)c(OC)c1` [Rigosertib (ON-01910), Rigosertib], the figures for the ΔTm at 10 µM at LIMK1KD and at LIMK2KD (setting [1]) were 2.7 °C and 1.6 °C, respectively.
For the molecule `CS(=O)(=O)O.Cn1cc(C2=C(c3cn(CCCSC(=N)N)c4ccccc34)C(=O)NC2=O)c2ccccc21` [Ro 31-8220 Mesylate], on LIMK1KD, the “TM Shift LIMK1 (K)” value stood at 1.6 K. Moreover, the “TM Shift LIMK2 (K)” value at LIMK2KD (setting [2]) worked out at 1.2 K.
With `CN(C)C[C@@H]1CCn2cc(c3ccccc32)C2=C(C(=O)NC2=O)c2cn(c3ccccc23)CCO1` [Ruboxistaurin], the ΔTm at 10 µM at LIMK1KD was 1 °C; at LIMK2KD (setting [1]), 0.4 °C.
Turning to `N#CC[C@H](C1CCCC1)n1cc(-c2ncnc3[nH]ccc23)cn1` [Ruxolitinib (INCB018424), Ruxolitinib], the values for the ΔTm at 10 µM at LIMK1KD and at LIMK2KD (setting [1]) were 1.6 °C and 2.6 °C, respectively.
Taken in the same sequence, the figures for `N#CC[C@@H](C1CCCC1)n1cc(-c2ncnc3[nH]ccc23)cn1` [S-Ruxolitinib (INCB018424), S-Ruxolitinib] were 0.9 °C and -0.7 °C.
For `CCn1c(N)c(C(=O)NC)c(=O)c2ccc(C#C[C@@](C)(O)COC)nc21` [SAR131675], the “TM Shift LIMK1 (K)” value at LIMK1KD is on record as 0.1 K. The “TM Shift LIMK2 (K)” value on LIMK2KD (setting [2]) came out at 2.9 K.
On to `CCn1c(=O)c(-c2cc[nH]n2)cc2c(C)nc(N)nc21` [SAR245409 (XL765)], for which the “TM Shift LIMK1 (K)” value on LIMK1KD is 1.0 K. For the same molecule, on LIMK2KD (setting [3]), the “TM Shift LIMK2 (K)” value is given as 6.6 K.
`Oc1ccc(-c2nc(-c3ccc(F)cc3)c(-c3ccncc3)[nH]2)cc1` [SB202190 (FHPI)]: the “TM Shift LIMK1 (K)” value at LIMK1KD came to 0.7 K. Besides, the “TM Shift LIMK2 (K)” value at LIMK2KD (setting [2]) was 0.2 K.
As for `C[S+]([O-])c1ccc(-c2nc(-c3ccncc3)c(-c3ccc(F)cc3)[nH]2)cc1` (stereo not drawn) [SB203580], the ΔTm at 10 µM on LIMK1KD came to 1.3 °C; on LIMK2KD (setting [1]) it was 3.3 °C.
Taken in the same sequence, the figures for `Cn1cc(C2=C(c3ccc(Cl)cc3Cl)C(=O)NC2=O)c2ccccc21` [SB216763] were 0.7 °C and 1.3 °C.
Turning to `O=C1NC(=O)C(c2ccccc2[N+](=O)[O-])=C1Nc1ccc(O)c(Cl)c1` [SB415286], the “TM Shift LIMK1 (K)” value at LIMK1KD is given as 1.7 K. Further, the “TM Shift LIMK2 (K)” value at LIMK2KD (setting [2]) came to 0.9 K.
Take `CN(C)CCOc1ccc(-c2nc(-c3ccncc3)c(-c3ccc4c(c3)CC/C4=N\O)[nH]2)cc1` [SB590885]: the figures for the ΔTm at 10 µM at LIMK1KD and on LIMK2KD (setting [1]) were 0.1 °C and 1 °C, respectively.
In the same order, the values of `O=C(Nc1ccc2[nH]nc(-c3ccncc3)c2c1)[C@@H]1CCN(CC(=O)N2CCN(c3ccc(-c4ncccn4)cc3)CC2)C1` [SCH772984] are 0.3 °C and 0.1 °C.
Turning to `CN1CCC(CNc2ccc3ncc(-c4cccc(OC(F)(F)F)c4)n3n2)CC1` [SGI-1776 free base], the “TM Shift LIMK1 (K)” value on LIMK1KD was found to be 1.7 K. Also, on LIMK2KD (setting [2]), the “TM Shift LIMK2 (K)” value is 1.4 K.
With `Cn1cc(-c2ccc3nnc(Sc4ccc5ncccc5c4)n3n2)cn1` [SGX-523], the results for the ΔTm at 10 µM on LIMK1KD and at LIMK2KD (setting [1]) were -0.4 °C and 0.2 °C, respectively.
Turning to `Oc1ccc(Nc2nc(-c3ccc(Cl)cc3)cs2)cc1` [SKI II], the “TM Shift LIMK1 (K)” value at LIMK1KD was -0.4 K. Also, the “TM Shift LIMK2 (K)” value at LIMK2KD (setting [2]) was 1.4 K.
Taken in the same sequence, the figures for `N#C/C(=C(/N)Sc1ccc(N)cc1)c1ccccc1C(F)(F)F` [SL-327] were 0.7 K and 0.7 K.
Taken in the same sequence, the figures for `O=C1NC(=O)/C(=C/c2cccc(C(F)(F)F)c2)S1` [SMI-4a] were -0.2 K and -0.4 K.
Turning to `CC(C)(C)c1cnc(CSc2cnc(NC(=O)C3CCNCC3)s2)o1` [SNS-032 (BMS-387032)], the ΔTm at 10 µM is 0.1 °C on LIMK1KD and -0.3 °C on LIMK2KD (setting [1]).
Taken in the same sequence, the figures for `O=C(Nc1cccc(Cl)c1)Nc1ncc(CCNc2ncnc3ccsc23)s1` [SNS-314 Mesylate] were -0.5 °C and 0.8 °C.
As for `Oc1c2ccccc2c2c3c(cccc13)N=N2` [SP600125], the ΔTm at 10 µM amounted to 1 °C at LIMK1KD and 2.1 °C on LIMK2KD (setting [1]).
On to `COc1c(C)c(C(=O)c2ccc(N)c(C(=O)[O-])c2)n2ccccc12.[Na+]` [SSR128129E], for which the “TM Shift LIMK1 (K)” value on LIMK1KD is listed as -0.6 K. On LIMK2KD (setting [2]), the “TM Shift LIMK2 (K)” value was 2.4 K.
On to `Cc1[nH]c(/C=C2\C(=O)Nc3ccc(S(=O)(=O)N(C)c4cccc(Cl)c4)cc32)c(C)c1C(=O)N1CCN(C)CC1` [SU11274], for which the ΔTm at 10 µM is 1.4 °C on LIMK1KD and -0.2 °C on LIMK2KD (setting [1]).
In the same order, the values of `CN1CCN(CCOc2cc(OC3CCOCC3)c3c(Nc4c(Cl)ccc5c4OCO5)ncnc3c2)CC1` [Saracatinib (AZD0530), Saracatinib] are 1.2 °C and 0.8 °C.
Regarding `CC[C@H](CO)Nc1nc(NCc2ccccc2)c2ncn(C(C)C)c2n1` [Seliciclib], the “TM Shift LIMK1 (K)” value at LIMK1KD is listed as 0.1 K; on LIMK1KD (listed as Roscovitine (Seliciclib,CYC202)), -0.4 K. Also, the “TM Shift LIMK2 (K)” value at LIMK2KD (setting [3]) is recorded as 0.0 K; on LIMK2KD (LIMK2KD, compound 10 µM, single shot, listed as Roscovitine (Seliciclib,CYC202), 10 µM) it was -1.3 K.
Turning to `Cn1cnc2c(F)c(Nc3ccc(Br)cc3Cl)c(C(=O)NOCCO)cc21` [Selumetinib (AZD6244), Selumetinib], the ΔTm at 10 µM at LIMK1KD is 0.1 °C; on LIMK2KD (setting [1]), 0.6 °C.
In the same order, the values of `O=C1c2ccc(Nc3ccc(F)cc3F)cc2CCc2ccc(OC[C@H](O)CO)cc21` [Skepinone-L] are -0.5 °C and -0.6 °C.
Take `C=CCN(/C=C1/C(=O)O[C@H](COC)[C@@]2(C)C1=C(O)C(=O)C1=C2[C@H](OC(C)=O)C[C@]2(C)C(=O)CC[C@@H]12)CC=C` [Sonolisib]: the ΔTm at 10 µM on LIMK1KD turned out to be 0.7 °C; at LIMK2KD (setting [1]), 0.6 °C.
As for `CNC(=O)c1cc(Oc2ccc(NC(=O)Nc3ccc(Cl)c(C(F)(F)F)c3)cc2)ccn1` [Sorafenib Tosylate], the “TM Shift LIMK1 (K)” value at LIMK1KD is 1.7 K. Moreover, the ΔTm at 10 µM at LIMK2KD (read-out: TM Shift LIMK2 (K), LIMK2KD, compound 10 µM, single shot) amounted to 1.5 °C.
With `CN1CCN(c2nc(C3=C(c4c[nH]c5ccccc45)C(=O)NC3=O)c3ccccc3n2)CC1` [Sotrastaurin], the ΔTm at 10 µM at LIMK1KD is 0.6 °C; at LIMK2KD (setting [1]), 1.2 °C.
`CN[C@@H]1C[C@H]2O[C@@](C)([C@@H]1OC)n1c3ccccc3c3c4c(c5c6ccccc6n2c5c31)C(=O)NC4` [Staurosporine]: the values for the ΔTm at 10 µM at LIMK1KD and at LIMK2KD (read-out: TM Shift LIMK2 (K)) were 5.1 °C and 3.3 °C, respectively.
For the molecule `CCN(CC)CCNC(=O)c1c(C)[nH]c(/C=C2\C(=O)Nc3ccc(F)cc32)c1C` [Sunitinib Malate], the “TM Shift LIMK1 (K)” value at LIMK1KD is given as 1.6 K. Further, the “TM Shift LIMK2 (K)” value at LIMK2KD (setting [3]) is 0.5 K.
For the molecule `CCN(CC)CCNC(=O)c1c(C)[nH]c(/C=C2\C(=O)Nc3ccc(F)cc32)c1C` [Sunitinib], the ΔTm at 10 µM on LIMK1KD was 1.8 °C. Also, the “TM Shift LIMK2 (K)” value at LIMK2KD (setting [3]) was -0.1 K.
